Active and inactive are the calls of the source.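 How the source made its calls: active means Level of the kinase MAPK1 protein lowered or raised by at least 30% versus solvent-only cells; inactive means change under 30% either way.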

For experiment [1], the target named is Mitogen-activated protein kinase 1 (Homo sapiens) (UniProt P28482). In words: MAPK1 abundance shift in treated cells – DLD1 cells, chemiluminescent western blot, powder samples, counter-screen for KLF5 inhibitor project, late-stage follow-up (AID 588614). The conditions noted are these: DLD-1 cells, ERK1/2 western blot, 24 h; at 10 µM; stronger effect = higher value. On the technique in general: A western blot detects proteins with antibodies after separation by electrophoresis.
Sequence of Mitogen-activated protein kinase 1 (Homo sapiens) (P28482 whole entry, looked up): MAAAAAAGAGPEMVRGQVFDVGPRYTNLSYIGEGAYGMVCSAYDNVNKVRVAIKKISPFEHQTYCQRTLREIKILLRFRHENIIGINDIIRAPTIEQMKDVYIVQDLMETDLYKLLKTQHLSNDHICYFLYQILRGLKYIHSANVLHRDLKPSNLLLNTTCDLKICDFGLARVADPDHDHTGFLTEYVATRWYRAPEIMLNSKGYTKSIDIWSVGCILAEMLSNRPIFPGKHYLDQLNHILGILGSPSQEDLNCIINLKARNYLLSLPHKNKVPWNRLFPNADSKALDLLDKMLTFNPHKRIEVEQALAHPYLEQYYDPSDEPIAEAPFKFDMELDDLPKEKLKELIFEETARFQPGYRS

Experiment [2] relates to DLD-1 cells, ERK1/2 western blot, 24 h. Described as above. The note with it: measured here: ERK1/2 band fold change vs DMSO; at 10 µM.

As usually defined, the inhibition is how much of the control response was suppressed. Turning to `CN(C(=O)COC(=O)/C=C/c1cccc([N+](=O)[O-])c1)C1CCS(=O)(=O)C1` (stereo unspecified), the inhibition in experiment [1] is 19.8% (inactive). Besides, the fold change in experiment [2] is -1.25.

For `CN(C(=O)CNC(=O)/C=C/c1cccc(Cl)c1)C1CCS(=O)(=O)CC1`, the inhibition in experiment [1] is 21.5% (inactive). Also, the fold change in experiment [2] is -1.27.

As for `CN(C(=O)CNC(=O)/C=C/c1cccc(Cl)c1)C1CCS(=O)(=O)C1` (stereo unspecified), in experiment [1], the inhibition is 20.8% (inactive). Further, in experiment [2], the fold change is -1.26.

The record behind these values is PubChem BioAssay AID588614 (The Scripps Research Institute Molecular Screening Center, 2011).
